Measured values taken from US20260077009A1, “COMPOSITIONS AND METHODS FOR TREATING NEUROLOGICAL DISORDERS” (Neurotech International Ltd, priority 2021, published 2026).

What was measured:
[1] = Stability of NTI164 in oil at room temperature (UPLC, weekly assay, CBDA as marker)
neurons = assay: Cell death in an excitotoxic cell injury paradigm; assay type: cell-based; conditions: excitotoxic cell injury paradigm (glutamate 3 mM); 2 μg/ml
Experimental: Neuronal viability was quantified using MTT [3-(4,5-dimethylthiazol-2-yl-)-2,5-diphenyl-2H-tetrazolium bromide; Sigma]. […] Cellular excitotoxicity was achieved via glutamate activation (3 mM).

TNF-alpha = assay: Multiplex cytokine/chemokine assay, TNF-alpha; assay type: cell-based, human; conditions: 2 μg/ml; Interleukin and Interferon activation
Experimental: (§1) Multiplex Cytokine/Chemokine Assay: Microglia media harvested following treatment initiation was centrifuged briefly to remove particulates (300 g for 10 min). Cytokine and chemokine levels in the microglial media were measured using a Bio-Plex 200 with a 96-well magnetic plate assay according to the manufacturer's instructions (Bio-Rad). Cytokines and chemokines measured included IL-1α, IL-1β, IL-2, IL-6, IL-10, IL-12 (p70), IL-13, G-CSF, GM-CSF, IFNγ, TNFα, CXCL1 (KC), CCL2 (MCP-1), and CCL5 (RANTES). All samples were run in duplicate and data were analyzed with the Bio-Plex Manager software.
(§2) The tubes are then placed in a sonication bath for 10 mins at 35-40 C. Upon completion of the sonication samples are then placed in a tray shaker (200 rpm) for 30 minutes at room temperature. Once completed the samples are then centrifuged at 4400 rpm for 5 minutes. The supernatant is collected for testing and development.
(§3) For the CBD sample, a pure standard (in powder form) was used. CBD 98% isolate was purchased as a reference standard from LGC Standards (London UK) (CAS No. 13956-29-1). The CBD standard reference was prepared at concentration of 1 mg/ml (in acetonitrile). CBD dilutions were made in acetonitrile as follows: 2 μg/ml; 6 μg/ml; and 0.1 μg/ml.

IL-12 = assay: Multiplex cytokine/chemokine assay, IL-12; assay type: cell-based, human; conditions: 2 μg/ml; Interleukin and Interferon activation; control 99.91
Experimental: as §1, §2, §3

COX-2 = COX-2 immunohistochemistry (protein level) assay in microglial cells; assay type: cell-based, human; conditions: 2 μg/ml, N=9
Experimental: Immunohistochemistry (Protein Level) Assay: Cells were fixed for 10 min with 4% paraformaldehyde (PFA) in PBS. After 3×5 minutes washing with PBS, cells were incubated with primary antibodies (anti-COX2) 1:1000 overnight at 4° C., and after 3×5 minutes washing in PBS, cells were then incubated in appropriate fluorescent secondary antibody 1:250 (Invitrogen) for 2 hours at room temperature. After a final wash, as previous, cells nuclei were sained with DAPI in the mounting media. Photomicrographs were taken of the cells in three fields of view per well from duplicate wells and analysed using Fiji for area coverage of each marker.
as §2, §3

Structure (SMILES)	Cannabinoid concentration in NTI164 (sample 28206-7) ([1]; Day 0 (13 Jul. 2021)) [mg/mL]	Cannabinoid concentration in NTI164 (sample 28206-7) ([1]; Day 2 (15 Jul. 2021)) [mg/mL]	Cannabinoid concentration in NTI164 (sample 28206-7) ([1]; Day 7 (20 Jul. 2021)) [mg/mL]	Cannabinoid concentration in NTI164 (sample 28206-7) ([1]; Day 14 (29 Jul. 2021)) [mg/mL]	Cannabinoid concentration in NTI164 (sample 28206-7) ([1]; Day 28 (12 Aug. 2021)) [mg/mL]	Cannabinoid concentration in NTI164 (sample 28206-7) ([1]; Week 5 (19 Aug. 2021)) [mg/mL]	Cannabinoid concentration in NTI164 (sample 28206-7) ([1]; Week 6 (27 Aug. 2021)) [mg/mL]	Cannabinoid concentration in NTI164 (sample 28206-7) ([1]; Week 32 (12 Sep. 2022)) [mg/mL]	Cell death / toxicity (neurons)	TNF-alpha, Average +/- Standard Deviation (SD) (TNF-alpha)	IL-12, Average +/- Standard Deviation (SD) (IL-12)	COX-2 expression, Avg +/- SEM (COX-2; exposure 1 hour after inflammatory insult (Interleukin and Interferon gamma), positive control 104.26)	COX-2 expression, Avg +/- SEM (COX-2; exposure 1 hour prior to inflammatory insult (Interleukin and Interferon gamma), positive control 94.47)
CCCCCc1cc2c(c(O)c1C(=O)O)[C@@H]1C=C(C)CC[C@H]1C(C)(C)O2 [(Tetrahydrocannabinolic acid) (D9-THCA), Tetrahydrocannabinolic acid]	0.66	0.72	0.64	0.69	0.36	0.79	0.73	<0.1					
C=C(C)[C@@H]1CCC(C)=C[C@H]1c1c(O)cc(CCCCC)cc1O [CBD, Cannabidiol, reference compound]	0.46	0.56	0.53	0.56	0.54	0.60	0.51	0.48	toxic	71.13 +/− 12.81	84.40 +/− 6.54	76.32 +/− 7.95 (SEM)	84.82 +/− 7.65 (SEM)
CCCCCc1cc(O)c2c(c1)OC(C)(CCC=C(C)C)C=C2 (stereo not drawn) [Cannabichrome (CBC), Cannabichrome]	1.23	1.19	1.34	1.22	1.27	1.20	1.15	1.22					
C=C(C)[C@@H]1CCC(C)=C[C@H]1c1c(O)cc(CCCCC)c(C(=O)O)c1O [Cannabidiol acid (CBD-A), Cannabidiol acid]	48.16	48.19	48.62	48.09	47.12	48.35	47.56	47.01					
C=C(C)[C@@H]1CCC(C)=C[C@H]1c1c(O)cc(CCC)cc1O [Cannabidivarin (CBDV), Cannabidivarin]	<0.1	<0.1	<0.1	<0.1	<0.1	0.10	<0.1	0.13					
CCCCCc1cc(O)c(C/C=C(\C)CCC=C(C)C)c(O)c1 [Cannabigerol (CBG), Cannabigerol]	5.21	5.23	5.14	5.1	5.1	5.30	5.28	5.12					
CCCCCc1cc(O)c(C/C=C(\C)CCC=C(C)C)c(O)c1C(=O)O [Cannabigerol Acid(CBG-A), Cannabigerol Acid]	1.07	1.18	1.20	1.19	0.81	1.08	1.00	1.05					
CCCCCc1cc(O)c2c(c1)OC(C)(C)c1ccc(C)cc1-2 [Cannabinol (CBN), Cannabinol]	2.32	2.54	2.48	2.33	2.56	2.22	2.27	2.21					
CCCCCc1cc(O)c2c(c1)OC(C)(C)[C@@H]1CC=C(C)C[C@@H]21 [DELTA-8-THC (D8-THC), DELTA-8-THC]	<0.1	<0.1	<0.1	<0.1	<0.1	<0.1	<0.1	<0.1					
CCCCCc1cc(O)c2c(c1)OC(C)(C)[C@@H]1CCC(C)=C[C@@H]21 [Tetrahydrocannabinol (D9-THC), Tetrahydrocannabinol]	<0.1	<0.1	<0.1	<0.1	<0.1	0.14	<0.1	0.11					
CCCc1cc(O)c2c(c1)OC(C)(C)[C@@H]1CCC(C)=C[C@@H]21 [Tetrahydrocannabivarin (THCV), Tetrahydrocannabivarin]	<0.1	<0.1	<0.1	<0.1	<0.1	<0.1	<0.1	<0.1					
